Data: patent publication US20260193250A1, “TOLL-LIKE RECEPTOR 7 AGONISTS AS IMMUNE-STIMULATORS TO ELICIT THE INNATE ANTITUMOR IMMUNITY” (Merck Patent GmbH, priority 2022, published 2026)

Columns and labels:
hTLR8 = target: T1, hTLR8 (Homo sapiens, UniProt Q9NR97); assay: TLR8 reporter assay in HEK-Blue cells (SEAP, Quanti-Blue); assay type: cell-based; settings: 24 hours incubation, SEAP absorbance at 620 nm
T1 construct: host or cells: HEK-Blue hTLR8 (HEK293-derived SEAP reporter cells)
T1 sequence (Q9NR97 27-1041): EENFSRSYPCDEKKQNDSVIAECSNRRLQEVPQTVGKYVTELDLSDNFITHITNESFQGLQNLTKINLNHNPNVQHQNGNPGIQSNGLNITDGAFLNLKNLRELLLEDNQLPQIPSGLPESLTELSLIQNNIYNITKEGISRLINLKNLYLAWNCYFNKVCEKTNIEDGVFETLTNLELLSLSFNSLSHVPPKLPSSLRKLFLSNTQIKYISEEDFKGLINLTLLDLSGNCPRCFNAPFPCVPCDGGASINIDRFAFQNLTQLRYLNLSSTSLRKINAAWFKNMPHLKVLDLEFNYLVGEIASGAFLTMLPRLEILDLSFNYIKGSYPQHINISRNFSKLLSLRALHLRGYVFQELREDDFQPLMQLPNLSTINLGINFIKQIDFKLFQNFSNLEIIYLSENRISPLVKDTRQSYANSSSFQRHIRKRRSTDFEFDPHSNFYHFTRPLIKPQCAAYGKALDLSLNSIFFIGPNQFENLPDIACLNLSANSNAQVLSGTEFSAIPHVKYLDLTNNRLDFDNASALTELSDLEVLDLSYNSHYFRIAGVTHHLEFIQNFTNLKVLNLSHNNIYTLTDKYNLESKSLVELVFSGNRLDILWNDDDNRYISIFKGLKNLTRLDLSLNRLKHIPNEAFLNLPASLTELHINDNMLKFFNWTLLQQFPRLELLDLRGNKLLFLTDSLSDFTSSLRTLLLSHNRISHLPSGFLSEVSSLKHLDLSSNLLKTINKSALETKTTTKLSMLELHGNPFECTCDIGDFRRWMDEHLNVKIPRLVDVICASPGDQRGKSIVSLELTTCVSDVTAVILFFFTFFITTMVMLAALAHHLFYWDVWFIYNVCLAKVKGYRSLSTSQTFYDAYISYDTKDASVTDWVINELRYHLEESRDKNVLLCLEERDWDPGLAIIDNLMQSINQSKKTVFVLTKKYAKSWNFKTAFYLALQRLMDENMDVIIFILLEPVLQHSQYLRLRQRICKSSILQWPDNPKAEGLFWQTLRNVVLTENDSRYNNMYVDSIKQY
Method: HEK-Blue™ TLR7 and TLR8 cell lines were obtained from InvivoGen (San Diego, CA, USA). HEK-Blue cells were cultured in DMEM medium hi glucose (Gibco-10569010) supplemented with 10% HI-FBS (Aus origin) (Gibco-10100-147), 1% penicillin/streptomycin (Gibco-15140-122-100 ml) as per manufacturer's recommendation. In addition, specific antibiotic mixtures were added to the culture. 100 μg/ml Zeocin (11006-33-0), 10 μg/ml Blasticidin (ant-bl-05), 50 μg/ml Normocin (ANT-NR-1-500 MG) for HEK-Blue™ hTLR7 and 100 μg/ml Zeocin, 30 μg/ml Blasticidin, 50 μg/ml Normocin for HEK-Blue™ hTLR8 cells (all from InvivoGen).
All the compounds were prepared in 100% DMSO (Sigma-D2650). The compounds were serially diluted in 100% DMSO (3 fold) up to 10 point dose response curve starting with 30 μM; final concentration of DMSO in the plate was 0.3%. Resiquimod and TL8-506 (InvivoGen-tlrl-t18506) were used as controls. 0.3% DMSO and 10 μM Resiquimod were used as min and max respectively, and % activation was calculated using following formula:
% Activation: {100−(max absorbance−absorbance)/(max absorbance−min absorbance)}×100.
For stimulation with TLR7/8 agonists, cells were resuspended in complete media and 40 μl of cell suspension (10,000 cells/well) was seeded on day 1 in 384 well assay plate (Thermo Scientific™ Nunc-164688) having pre-dispensed compounds with Echo Liquid handler. The plate was spun at 100 g for 1 min to settle down the cells and incubated at 37° C. with 5% CO2 for 24 hours. For measuring production of SEAP after 24 hrs of incubation, 10 μl of Quanti-Blue™ solution (InvivoGen rep-qbs2) prepared according to manufacturer's instructions was added in dark to the assay plate and incubated at 37° C. with 5% CO2 for 30 min. Post incubation, the absorbance was measured at 620 nm in Tecan spark (Spark control Magellan). EC50 were determined using Graph Pad Prism Statistical software (Version 7.05), with individual data points represent the absorbance values of duplicates.

[1] = system: Peripheral blood mononuclear cells (PBMC); assay: TNFα secretion from PBMCs; assay type: cell-based; settings: human PBMCs, 18 hours incubation, MILLIPLEX bead panel
Method: Peripheral blood mononuclear cells (PBMC) were isolated from healthy human volunteers and banked in liquid nitrogen. Vial of frozen PBMC was thawed in 37° C. water bath for no more than 2 minutes. The contents of the tube were aseptically transferred to pre-warmed complete media containing RPMI basal media (Gibco-21875034) supplemented with 10% HI-FBS (Aus origin) (Gibco-10100-147) and 1% penicillin/streptomycin (Gibco-15140-122-100 ml) followed by centrifugation. Cells were resuspended in complete media (3 ml) and counted using haemocytometer.
All selected compounds (Five benchmark and 15 example molecules) were prepared in 100% DMSO (Sigma-D2650) (10 mM stock). The compounds were serially diluted in 100% DMSO (4 fold) up to 8 point DRC in U-bottom 96 well plate (Cellstar-650180). 3 μl of this serially diluted DRC was mixed with 97 μl of completed media (1:33.33) as intermediate dilution (300 μM) 3% DMSO. 11 μl of compounds from intermediate dilution was added to the PBMC plate (1:10) such that final concentration of DMSO in the culture plate is 0.3% and starting concentration of the compounds is 30 μM. Resiquimod (30 μM) and DMSO (0.3%) were used as positive and negative controls respectively.
The plate was incubated at 37° C. with 5% CO2 for 18 hours. Post incubation, the plate was spun at 2000 rpm for 5 min and supernatant was gently aspired and collected in protein low binding V-bottom 96 well plates (Thermo Fisher-249944). The supernatant plates were sealed, labelled appropriately and stored at −80° C. till cytokine analysis (<1 month).
MILLIPLEX MAP Human Cytokine/Chemokine Magnetic Bead Panel kit (HCYTOMAG-60K) was used for measuring TNF alpha as per the kit's recommendation.
EC50 were determined using Graph Pad Prism Statistical software (Version 7.05), with individual data points represent the absorbance values of duplicates.

SMILES	EC50 (hTLR8)	EC50 [1]
CCOCc1nc2c(N)nc3ccccc3c2n1CC(C)(C)OCCCN1CCN(C)CC1 [Example 2]	1 to 10 µM	0.1 to 1 µM
CCOCc1nc2c(N)nc3ccccc3c2n1CC(C)(C)OCCCCN1CCN(C)CC1 [Example 3]	1 to 10 µM	< 0.1 µM
CCOCc1nc2c(N)nc3ccccc3c2n1CC(C)(C)OCCCCCN1CCN(C)CC1 [Example 4]	0.1 to 1 µM	< 0.1 µM
CCOCc1nc2c(N)nc3ccccc3c2n1CC(C)(C)OCCCCN1CCOCC1 [Example 7]	0.1 to 1 µM	0.1 to 1 µM
CCOCc1nc2c(N)nc3ccccc3c2n1CC(C)(C)OCCCCN1CCCCC1 [Example 8]	1 to 10 µM	1 to 10 µM
CCOCc1nc2c(N)nc3ccccc3c2n1CC(C)(C)OCCCCN1CCCC1 [Example 9]	0.1 to 1 µM	> 10 µM
CCOCc1nc2c(N)nc3ccccc3c2n1CC(C)(C)OCCCCN1CCNCC1 [Example 10]	1 to 10 µM	0.1 to 1 µM
CCOCc1nc2c(N)nc3ccccc3c2n1CC(C)(C)OCCCCN1CCN(CCN)CC1 [Example 11]	1 to 10 µM	1 to 10 µM
CCOCc1nc2c(N)nc3ccccc3c2n1CC(C)(C)OCCCCn1cc(CO)nn1 [Example 13]	> 10 µM	0.1 to 1 µM
CCOCc1nc2c(N)nc3ccccc3c2n1CC(C)(C)OCCCCn1cc(CN)nn1 [Example 14]	1 to 10 µM	0.1 to 1 µM
CCNCc1nc2c(N)nc3ccccc3c2n1CC(C)(C)OCCCCN1CCN(C)CC1 [Example 18]	> 10 µM	1 to 10 µM
CCOCc1nc2c(N)nc3ccccc3c2n1CC(C)(C)OC(=O)CN [Example 19]	0.01 to 0.1 µM	< 0.1 µM
CCOCc1nc2c(N)nc3ccccc3c2n1CC(C)(C)OCCCCN1CCN(CC(C)(C)SC)CC1 [Example 27]	1 to 10 µM	1 to 10 µM
